# According to the NIST ThermoML archive (doi:10.1021/je700055p):
# ± gives the expanded uncertainty stated by the source.
# Test: relative permittivity at various frequencies (dimensionless)
# Settings: 101.3 kPa, Liquid, Frequency=1 MHz, Coaxial cylinder capacitor
compound,measurement,setting,value
CC#N [acetonitrile],relative permittivity,288.15 K,37.52 ± 0.17
same,relative permittivity,293.15 K,36.62 ± 0.16
same,relative permittivity,298.15 K,35.88 ± 0.16
same,relative permittivity,303.15 K,35.15 ± 0.15
same,relative permittivity,308.15 K,34.45 ± 0.15
same,relative permittivity,313.15 K,33.75 ± 0.15
same,relative permittivity,318.15 K,33.01 ± 0.14
same,relative permittivity,323.15 K,32.36 ± 0.14
same,relative permittivity,328.15 K,31.62 ± 0.14
same,relative permittivity,333.15 K,31.05 ± 0.13
